LD50, inhibition in vivo and ED30 data for 16 compounds are collected here from ChEMBL document CHEMBL3244392, “Synthesis and antiinflammatory activity of some 2-aryl-6-benzoxazoleacetic acid derivatives” (J Med Chem, 1977).

Structures are written as SMILES.

Data set [1] in a line: Toxicity in po dosed rat. It counts as organism-based. Particulars: in vivo.
Data set [2] has as its system Rattus norvegicus. Nature of the data set: Antiinflammatory activity in rat assessed as inhibition of carrageenan-induced paw edema at 50 mg/kg, po administered as two doses 3 and 0.5 hr prior to challenge measured 2.5 hrs post challenge. It counts as functional.
Data set [3] concerns Rattus norvegicus. Nature of the data set: Antiinflammatory activity in rat assessed as inhibition of carrageenan-induced paw edema at 100 mg/kg, po administered as two doses 3 and 0.5 hr prior to challenge measured 2.5 hrs post challenge. It counts as functional.
For data set [4], the system named is Rattus norvegicus. The experiment in a line: Antiinflammatory activity in adrenalectomized rat assessed as inhibition of carrageenan-induced paw edema at 25 mg/kg, po administered as two doses 3 and 0.5 hr prior to challenge measured 2.5 hrs post challenge. It counts as functional.
The subject of data set [5] is Rattus norvegicus. Nature of the data set: Antiinflammatory activity in rat assessed as inhibition of carrageenan-induced paw edema at 25 mg/kg, po administered as two doses 3 and 0.5 hr prior to challenge measured 2.5 hrs post challenge. It counts as functional.
Data set [6] has as its system Rattus norvegicus. Nature of the data set: Antiinflammatory activity in adrenalectomized rat assessed as inhibition of carrageenan-induced paw edema administered orally 1 hr prior to challenge measured 2.5 hrs post challenge. It counts as functional. Particulars: po.
Data set [7] has as its system Rattus norvegicus. Nature of the data set: Antiinflammatory activity in adrenalectomized rat assessed as inhibition of carrageenan-induced paw edema administered orally 1 hr prior to challenge measured 5 hrs post challenge. It counts as functional. Particulars: po.
The subject of data set [8] is Rattus norvegicus. Nature of the data set: Antiinflammatory activity in adrenalectomized rat assessed as inhibition of carrageenan-induced paw edema at 100 mg/kg, po administered as two doses 3 and 0.5 hr prior to challenge measured 2.5 hrs post challenge. It counts as functional.
In data set [9] the test system is Rattus norvegicus. The experiment in a line: Antiinflammatory activity in adrenalectomized rat assessed as inhibition of carrageenan-induced paw edema at 50 mg/kg, po administered as two doses 3 and 0.5 hr prior to challenge measured 2.5 hrs post challenge. It counts as functional.

`CC(C(=O)O)c1ccc2nc(-c3ccc(F)cc3)oc2c1` (stereo not drawn) came in with a median lethal dose (LD50) in [1] of 1200 mg/kg. In addition, in the data set on Rattus norvegicus [2], the inhibition in vivo at 50 mg/kg was found to be 48%.
`CC(CO)c1ccc2nc(-c3ccccc3)oc2c1` (stereo not drawn): the inhibition in vivo at 100 mg/kg in the data set with Rattus norvegicus [3] stood at 61%. In [1], this compound returned a median lethal dose (LD50) of 800 mg/kg.
`CC(C(=O)O)c1ccc2nc(-c3ccc(Cl)cc3Cl)oc2c1` (stereo not drawn): the LD50 in [1] was found to be 300 mg/kg. Besides, the inhibition in vivo at 25 mg/kg was found to be 56% with Rattus norvegicus [4] and 49% with Rattus norvegicus [5].
Turning to `CC(C(=O)O)c1ccc2nc(-c3ccc(Cl)cc3)oc2c1` (stereo not drawn), the ED30 was determined as 2.4 mg/kg in the data set on Rattus norvegicus [6] and 11 mg/kg in the data set on Rattus norvegicus [7]. Moreover, in data set [1], the 50% lethal dose (LD50) was 1200 mg/kg. The inhibition in vivo at 50 mg/kg in the data set with Rattus norvegicus [2] worked out at 28%.
On to `Cc1ccc(-c2nc3ccc(C(C)C(=O)O)cc3o2)cc1` (stereo not drawn), for which, in data set [1], the 50% lethal dose (LD50) stood at 1200 mg/kg. The inhibition in vivo at 50 mg/kg in the data set with Rattus norvegicus [2] came to 43%.
As for `OCCc1ccc2nc(-c3ccccc3)oc2c1`, in the data set with Rattus norvegicus [3], the inhibition in vivo at 100 mg/kg stood at 47%. In data set [1], this compound gave an LD50 greater than 1600 mg/kg.
Take `CCCCC1C(=O)N(c2ccccc2)N(c2ccccc2)C1=O` [PHENYLBUTAZONE]: the ED30 was found to be 23.8 mg/kg in the data set on Rattus norvegicus [6] and 52.6 mg/kg with Rattus norvegicus [7]. The inhibition in vivo at 100 mg/kg with Rattus norvegicus [8] is 60%. Moreover, in the data set with Rattus norvegicus [2], the inhibition in vivo at 50 mg/kg stood at 39%.
Compound `Cc1ccc2nc(-c3ccccc3)oc2c1` registered an LD50 in data set [1] of less than 1600 mg/kg. Moreover, in the data set with Rattus norvegicus [2], the inhibition in vivo at 50 mg/kg came out at 10%.
`O=C(O)Cc1ccc2nc(-c3ccccc3)oc2c1`: the inhibition in vivo at 100 mg/kg is 60% in the data set on Rattus norvegicus [3] and 50% with Rattus norvegicus [8]. Besides, the LD50 in [1] was determined as 1200 mg/kg.
Regarding `CC(C(=O)O)c1ccc2nc(-c3ccccc3Cl)oc2c1` (stereo not drawn), the ED30 in the data set with Rattus norvegicus [6] came out at 1.98 mg/kg; in the data set on Rattus norvegicus [7], 23 mg/kg. In data set [1], this compound yielded an LD50 of 1200 mg/kg. Besides, the inhibition in vivo at 50 mg/kg in the data set on Rattus norvegicus [2] was 41%; in the data set with Rattus norvegicus [9], 58%.
Compound `CC(C(=O)O)c1ccc2nc(-c3ccccc3)oc2c1` (stereo not drawn) returned a median lethal dose (LD50) in data set [1] of 600 mg/kg. In the data set with Rattus norvegicus [2], the inhibition in vivo at 50 mg/kg was determined as 60%.
Consider `Cl.NCCc1ccc2nc(-c3ccccc3)oc2c1`, for which, in [1], the LD50 stood at 300 mg/kg. Also, the inhibition in vivo at 25 mg/kg worked out at 0% in the data set with Rattus norvegicus [4] and 59% in the data set on Rattus norvegicus [5].
`CC(CN)c1ccc2nc(-c3ccccc3)oc2c1.O=C(O)CCC(=O)O` (stereo not drawn): the median lethal dose (LD50) in [1] came to 300 mg/kg. In addition, in the data set on Rattus norvegicus [5], the inhibition in vivo at 25 mg/kg was 0%.
Take `CCOC(=O)Cc1ccc2nc(-c3ccccc3)oc2c1`: in the data set on Rattus norvegicus [3], the inhibition in vivo at 100 mg/kg was 61%. This compound also came in with a 50% lethal dose (LD50) in [1] of 1200 mg/kg.
With `C[C@]12CCC(=O)C=C1CC[C@@H]1[C@@H]2[C@@H](O)C[C@@]2(C)[C@H]1CC[C@]2(O)C(=O)CO` [HYDROCORTISONE], the inhibition in vivo at 50 mg/kg in the data set on Rattus norvegicus [2] came out at 42%.
As for `CC(C(=O)O)c1ccc2oc(-c3ccc(Cl)cc3)nc2c1` (stereo not drawn) [BENOXAPROFEN], the ED30 in the data set with Rattus norvegicus [6] was 13.4 mg/kg; with Rattus norvegicus [7], 10.6 mg/kg. This compound gave an LD50 in [1] of 800 mg/kg. Moreover, in the data set on Rattus norvegicus [2], the inhibition in vivo at 50 mg/kg came out at 78%.
